Consider three compounds from US20230381155A1, “TREATMENT OF BREAST CANCER USING COMBINATION THERAPIES COMPRISING GDC-9545 AND GDC-0077” (Genentech, Inc., priority 2021, published 2023).

For one data set, the system named is frontline patients. The settings on record: NCT01602380; cited from earlier work.
The test system of data set [1] is ER+ breast cancer xenograft models. In words: xenograft models, efficacy versus fulvestrant. It is filed as in vivo. The settings on record: fulvestrant dosed according to a clinically relevant dosing scheme.
Another data set has as its system T-47D.ER.D538G cells. Briefly: CyQUANT relative viability, T-47D.ER.D538G. It is filed as cell-based. The settings on record: 300 nM GDC-9545, 80 nM GDC-0077, alone or combined; 0.1 nmol/L E2; 6 to 8 days.
The next data set in a line: oral bioavailability. The settings on record: in vivo.
The target of the next data set is T1, ER (Homo sapiens, UniProt P03372).
T1 sequence (P03372 1-595): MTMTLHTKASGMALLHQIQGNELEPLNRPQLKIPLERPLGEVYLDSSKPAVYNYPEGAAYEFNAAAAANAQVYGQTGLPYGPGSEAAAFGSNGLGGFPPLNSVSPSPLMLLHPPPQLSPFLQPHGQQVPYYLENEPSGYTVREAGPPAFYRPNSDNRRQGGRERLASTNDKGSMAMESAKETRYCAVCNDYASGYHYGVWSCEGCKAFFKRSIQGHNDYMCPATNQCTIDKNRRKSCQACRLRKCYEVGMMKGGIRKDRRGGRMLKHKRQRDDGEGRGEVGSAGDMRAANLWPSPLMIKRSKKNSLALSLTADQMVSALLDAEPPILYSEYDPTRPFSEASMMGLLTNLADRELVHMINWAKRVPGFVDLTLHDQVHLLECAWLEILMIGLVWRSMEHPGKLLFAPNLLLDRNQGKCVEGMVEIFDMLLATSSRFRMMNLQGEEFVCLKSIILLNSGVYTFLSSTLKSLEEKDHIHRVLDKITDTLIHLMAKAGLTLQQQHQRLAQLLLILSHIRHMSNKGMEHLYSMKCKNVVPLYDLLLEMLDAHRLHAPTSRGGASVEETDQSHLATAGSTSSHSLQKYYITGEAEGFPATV
In words: competition with estrogens for binding to the ER.

The next data set relates to MCF-7.ER.Y537S cells. Briefly: CyQUANT relative viability, MCF-7.ER.Y537S. The class given is cell-based. The settings on record: 300 nM GDC-9545, 80 nM GDC-0077, alone or combined; 0.1 nmol/L E2; 6 to 8 days.
In data set [2] the test system is ESR1 wildtype MCF-7 (PIK3CA.E545K) cells. Briefly: CyQUANT relative viability, MCF-7 wildtype ESR1. It is filed as cell-based. The settings on record: 300 nM GDC-9545, 80 nM GDC-0077, alone or combined; 0.1 nmol/L E2; 6 to 8 days.
Method: (§1) Cells were treated as shown for 6 to 8 days, and relative viability was assessed. *p<0.0001, parametric t-test.
ESR1 wildtype MCF-7 (PIK3CA.E545K) and T-47D (PIK3CA.H1047R) cells, and engineered ESR1 mutant cells [MCF-7.ER.Y537S, T-47D.ER.D538G] were grown under standard cell culture conditions in RPMI media with 10% fetal bovine serum. One day prior to the addition of drugs, cells were seeded in 384-well plates in phenol red-free RPMI with 10% charcoal-stripped fetal bovine serum in order to deprive the cells of hormones. Single agent 300 nM GDC-9545, 80 nM GDC-0077, 125 nM palbociclib or a combination thereof, were tested in quadruplicate in the presence of 0.1 nmol/L estradiol (E2) during a 6-day or 8-day incubation period. The absence of E2 in the media (−E2) serves to mimic treatment with an Aromatase Inhibitor (AI). The combination of E2 withdrawal plus palbociclib—reflecting the current standard of care for metastatic breast cancer—was included. […] The relative number of viable cells at the 6/8-day timepoint was determined by CyQUANT (ThermoFisher, C7026).
Data set [3] is classed as in vitro ADME.
The subject of data set [4] is ER+ breast cancer models of ESR1-wild type and ESR1-mutation-bearing disease. Briefly: nonclinical activity in ER+ breast cancer models.
In data set [5] the test system is ESR1 wildtype T-47D (PIK3CA.H1047R) cells. Briefly: CyQUANT relative viability, T-47D wildtype ESR1. It is filed as cell-based. The settings on record: 300 nM GDC-9545, 80 nM GDC-0077, alone or combined; 0.1 nmol/L E2; 6 to 8 days. How it is done: Combination of GDC-9545 and GDC-007 was investigated and compared to efficacy of each single agent and to an AI+palbociclib control. ESR1 wildtype MCF-7 (PIK3CA.E545K) and T-47D (PIK3CA.H1047R) cells, and engineered ESR1 mutant cells [MCF-7.ER.Y537S, T-47D.ER.D538G] were grown under standard cell culture conditions in RPMI media with 10% fetal bovine serum. One day prior to the addition of drugs, cells were seeded in 384-well plates in phenol red-free RPMI with 10% charcoal-stripped fetal bovine serum in order to deprive the cells of hormones. Single agent 300 nM GDC-9545, 80 nM GDC-0077, 125 nM palbociclib or a combination thereof, were tested in quadruplicate in the presence of 0.1 nmol/L estradiol (E2) during a 6-day or 8-day incubation period. The absence of E2 in the media (−E2) serves to mimic treatment with an Aromatase Inhibitor (AI). The combination of E2 withdrawal plus palbociclib—reflecting the current standard of care for metastatic breast cancer—was included. Drug concentrations of GDC-0077 and palbociclib were chosen to be clinically relevant, based on human exposures. […] The relative number of viable cells at the 6/8-day timepoint was determined by CyQUANT (ThermoFisher, C7026).

Data set [6] deals with ER, wild-type and ESR1-mutant contexts. Briefly: in vitro cell and biochemical assays, potency versus fulvestrant.
Data set [7] is described as follows: human steady-state total drug exposure, GDC-9545 versus fulvestrant. It is filed as in vivo. The settings on record: GDC-9545 30 mg QD versus fulvestrant 500 mg IM monthly.
The target in data set [8] is Class I alpha isoform of phosphatidylinositol 3-kinase (PI3K-α) (Homo sapiens, UniProt P42336). In words: biochemical inhibition of PI3K-α.
Another data set has as its system pAkt, pPRAS40, pS6RP. In words: downstream PI3K pathway markers. The settings on record: nonclinical studies.
Data set [9] has as its system tumor cells bearing mutant p110a. Briefly: potency in tumor cells, mutant versus wild-type p110a. It is filed as cell-based.
The test system of data set [10] is other Class I PI3Ks, including the β, δ, and γ isoforms. Briefly: biochemical inhibition of other Class I PI3Ks. The settings on record: δ, and γ isoforms versus PI3K-α.
Another data set concerns mutant p110a. Briefly: degradation of mutant p110a. The class given is cell-based. The settings on record: nonclinical studies. From the text: Without being bound by any particular theory, GDC-0077 appears to exert its activity by binding to the adenosine binding site of p110a, thereby inhibiting the phosphorylation of membrane-bound phosphatidylinositol 4,5-bisphosphate (PIP2) to phosphatidylinositol 3,4,5-trisphophate (PIP3). This inhibition decreases downstream activation of pathway effectors including Akt and S6RP, resulting in decreased cellular proliferation, metabolism, and angiogenesis.

In data set [11] the test system is patients with measurable disease. Briefly: clinical study of single agent GDC-0077, RECIST v1.1 response. It is filed as in vivo, human. The settings on record: among 20 patients. From the text: In one study using single agent administration of GDC-0077, among 20 patients with measurable disease treated with a 6-mg, 9-mg, or 12-mg QD starting dose of GDC-0077 as a single agent, 5 patients (25%) achieved PRs, while 9 patients (45%) achieved clinical benefit (defined as the percentage of patients achieving confirmed Response Evaluation Criteria in Solid Tumors, Version 1.1 [RECIST v1.1]-defined CR, PR, and/or SD [non-complete response/non-progressive disease for patients with non-measurable disease at baseline] for 24 weeks). Further, 14 of the 20 patients were enrolled at the 6-mg or 9-mg QD starting dose, and 3 patients had received prior treatment with a CDK4/6i.

In data set [12] the test system is human breast cancer xenograft models harboring PIK3CA mutations. Briefly: tumor growth in breast cancer xenograft models. The class given is in vivo. The settings on record: nonclinical studies.
In data set [13] the test system is PIK3CA-mutant breast cancer cell lines. Briefly: proliferation and apoptosis in PIK3CA-mutant breast cancer cell lines. It is filed as cell-based. The settings on record: nonclinical studies.
Setting [14] is: 6-mg, 9-mg, or 12-mg QD starting dose, single agent.
[15] abbreviates: CR, PR and/or SD for 24 weeks, RECIST v1.1.

“Also recorded” adds a separate entry of the source.

Chain of Class I alpha isoform of phosphatidylinositol 3-kinase (PI3K-α) (P42336 whole entry, canonical isoform): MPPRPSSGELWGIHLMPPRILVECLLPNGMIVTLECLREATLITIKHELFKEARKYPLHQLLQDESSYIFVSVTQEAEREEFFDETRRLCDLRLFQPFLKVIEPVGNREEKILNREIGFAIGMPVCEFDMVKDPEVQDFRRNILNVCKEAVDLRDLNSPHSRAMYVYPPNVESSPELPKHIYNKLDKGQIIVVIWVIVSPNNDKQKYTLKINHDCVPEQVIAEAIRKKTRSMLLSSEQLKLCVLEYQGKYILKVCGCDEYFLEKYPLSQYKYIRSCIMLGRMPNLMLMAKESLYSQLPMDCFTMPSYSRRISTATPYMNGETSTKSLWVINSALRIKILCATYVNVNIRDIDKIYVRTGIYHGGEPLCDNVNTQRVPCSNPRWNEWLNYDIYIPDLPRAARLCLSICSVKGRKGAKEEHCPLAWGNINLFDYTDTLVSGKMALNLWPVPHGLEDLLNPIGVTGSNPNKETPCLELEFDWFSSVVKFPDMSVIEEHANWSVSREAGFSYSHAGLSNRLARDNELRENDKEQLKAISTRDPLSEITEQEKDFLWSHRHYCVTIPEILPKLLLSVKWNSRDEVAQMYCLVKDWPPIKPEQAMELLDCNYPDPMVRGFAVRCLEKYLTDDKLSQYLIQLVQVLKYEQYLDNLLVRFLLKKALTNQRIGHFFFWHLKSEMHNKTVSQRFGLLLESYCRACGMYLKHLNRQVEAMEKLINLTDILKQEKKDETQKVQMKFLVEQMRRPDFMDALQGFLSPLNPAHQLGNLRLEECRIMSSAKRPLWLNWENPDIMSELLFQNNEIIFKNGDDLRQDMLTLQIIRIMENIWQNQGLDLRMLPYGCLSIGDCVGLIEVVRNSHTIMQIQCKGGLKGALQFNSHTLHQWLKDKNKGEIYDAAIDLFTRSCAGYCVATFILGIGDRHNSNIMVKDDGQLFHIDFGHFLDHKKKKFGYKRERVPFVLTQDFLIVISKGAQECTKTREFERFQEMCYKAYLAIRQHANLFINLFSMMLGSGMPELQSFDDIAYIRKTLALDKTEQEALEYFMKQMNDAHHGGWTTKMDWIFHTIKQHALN
Chain of Class I alpha isoform of phosphatidylinositol 3-kinase (PI3K-α) (P27986 whole entry partner, canonical isoform): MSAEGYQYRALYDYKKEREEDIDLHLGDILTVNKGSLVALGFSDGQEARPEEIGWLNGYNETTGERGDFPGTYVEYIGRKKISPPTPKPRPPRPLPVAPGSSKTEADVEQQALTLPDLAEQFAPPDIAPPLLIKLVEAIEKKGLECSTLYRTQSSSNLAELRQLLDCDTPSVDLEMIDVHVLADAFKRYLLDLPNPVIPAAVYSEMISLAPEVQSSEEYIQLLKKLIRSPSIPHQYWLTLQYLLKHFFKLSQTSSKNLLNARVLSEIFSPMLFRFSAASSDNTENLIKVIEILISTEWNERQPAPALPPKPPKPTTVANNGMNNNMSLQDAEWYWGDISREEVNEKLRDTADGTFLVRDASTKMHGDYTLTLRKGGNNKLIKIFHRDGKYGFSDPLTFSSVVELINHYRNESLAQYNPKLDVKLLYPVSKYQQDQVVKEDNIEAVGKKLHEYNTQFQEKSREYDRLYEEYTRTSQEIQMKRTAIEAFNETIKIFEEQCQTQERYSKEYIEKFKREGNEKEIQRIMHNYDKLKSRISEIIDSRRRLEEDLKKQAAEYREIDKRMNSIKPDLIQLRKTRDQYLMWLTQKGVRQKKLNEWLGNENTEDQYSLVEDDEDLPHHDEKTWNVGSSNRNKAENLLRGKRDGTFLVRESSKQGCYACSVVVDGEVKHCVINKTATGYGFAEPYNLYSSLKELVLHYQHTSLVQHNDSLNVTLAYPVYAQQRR
Method for MCF-7.ER.Y537S cells: as §1
One day prior to the addition of drugs, cells were seeded in 384-well plates in phenol red-free RPMI with 10% charcoal-stripped fetal bovine serum in order to deprive the cells of hormones. Single agent 300 nM GDC-9545, 80 nM GDC-0077, 125 nM palbociclib or a combination thereof, were tested in quadruplicate in the presence of 0.1 nmol/L estradiol (E2) during a 6-day or 8-day incubation period. The absence of E2 in the media (−E2) serves to mimic treatment with an Aromatase Inhibitor (AI). The combination of E2 withdrawal plus palbociclib—reflecting the current standard of care for metastatic breast cancer—was included. Drug concentrations of GDC-0077 and palbociclib were chosen to be clinically relevant, based on human exposures. 300 nM GDC-9545 is a saturating concentration that is lower than the human dose equivalent of 30 mg. The relative number of viable cells at the 6/8-day timepoint was determined by CyQUANT (ThermoFisher, C7026).
Method for T-47D.ER.D538G cells: as §1

Turning to `C[C@]12CC[C@@H]3c4ccc(O)cc4C[C@@H](CCCCCCCCC[S+]([O-])CCCC(F)(F)C(F)(F)F)[C@H]3[C@@H]1CC[C@@H]2O` (stereo partly shown) [fulvestrant], the “clinical benefit compared with anastrozole” value in the data set on frontline patients is reported as “benefit over anastrozole”. In addition, the “efficacy in xenograft models” value in [1] is listed as “less efficacious than GDC-9545”.
Regarding `C[C@@H]1Cc2c([nH]c3ccccc23)[C@@H](c2c(F)cc(NC3CN(CCCF)C3)cc2F)N1CC(F)(F)CO` [GDC-9545], the “anti-proliferative effect / relative viability” value with T-47D.ER.D538G cells is reported as “considerably more impactful than E2 withdrawal”; with MCF-7.ER.Y537S cells, “reduced cell numbers relative to the control condition”; in data set [2] it was “greater impact on cell viability versus estrogen withdrawal”; in [5] it was “reduced cell proliferation relative to control treated cells; also recorded: did not achieve the same anti-proliferative activity as the combination of the agents”. Further, the oral bioavailability entry in the data set “oral bioavailability” is recorded as “orally bioavailable”. The “potency of competition with estrogens for binding to the ER” value on ER is recorded as “low nanomolar potency”. The “plasma protein binding compared with fulvestrant” value in data set [3] is “lower plasma protein binding”. Also, the nonclinical activity entry in [4] is “robust nonclinical activity”. The “potency relative to fulvestrant” value in [6] is listed as “up to 10 times”. Besides, the “human steady-state total drug exposure relative to fulvestrant” value in [7] is “approximately 10 fold”.
For the compound `C[C@H](Nc1ccc2c(c1)OCCn1cc(N3C(=O)OC[C@H]3C(F)F)nc1-2)C(N)=O` [GDC-0077, (2S)-2-[[2-[(4S)-4-(Difluoromethyl)-2-oxo-3-oxazolidinyl]-5,6-dihydroimidazo[1,2-d][1,4]benzoxazepin-9-yl]amino]propanamide], the “inhibition of PI3K-α” value in data set [8] was “potent and selective inhibitor”. Moreover, the “downstream PI3K pathway markers pAkt, pPRAS40, pS6RP” value in the data set on pAkt, pPRAS40, pS6RP is recorded as “reduces downstream PI3K pathway markers”. For the same compound, the “anti-proliferative effect / relative viability” value in [5] is recorded as “did not achieve the same anti-proliferative activity as the combination of the agents”. In [9], the “potency in cells bearing mutant p110a over cells bearing wild-type p110a” value is “increased potency”. Besides, the “less potent biochemical inhibition of other Class I PI3Ks (selectivity)” value in [10] is listed as > 300 fold. The “degradation of mutant p110a” value in the data set with mutant p110a was “specifically degrades mutant p110a”. Further, in data set [11] (setting [14]), the “patients achieving PRs” value amounted to 5 patients and the “patients achieving PRs, percentage” value was determined as 25%. Besides, in data set [11] (setting [15]), the “patients achieving clinical benefit” value was 9 patients and the “patients achieving clinical benefit, percentage” value came to 45%. Also, the tumor growth entry in data set [12] was “inhibits tumor growth”. Further, in [13], the apoptosis result is given as “induces apoptosis” and the proliferation entry is listed as “inhibits proliferation”.
